Measurements from paper PMC11912471 (Journal of Medicinal Chemistry, 2025).
Structures can show the parent of a compound that is named as a salt. Where two headings read alike, the source gives them in different places.

Assays:
[1] = target: homogeneous liver adenosylmethionine decarboxylase; design: method as in PMID 3861182; conditions: irreversible; read-out: Ki, irreversible inhibitor of liver adenosylmethionine decarboxylase; cited from earlier work
[2] = target: homogeneous mouse kidney ODC; design: method as in PMID 3861182; conditions: competitive; read-out: Ki, competitive inhibitor of mouse kidney ODC; cited from earlier work
[3] = no reference printed for this property; cited from earlier work
[4] = cited from earlier work
human ODC = system: human ODC; design: method as in earlier work; conditions: 49−51; cited from earlier work
[5] = target: T1, purified human ODC enzyme (Homo sapiens, UniProt P11926); assay: In vitro ODC enzyme activity assay; assay type: biochemical; conditions: for IC50: read-out: ODC biochemical inhibition IC50
T1 construct: His6 (C); made in house; host or cells: E. coli BL21(DE3)
T1 sequence (P11926 1-461): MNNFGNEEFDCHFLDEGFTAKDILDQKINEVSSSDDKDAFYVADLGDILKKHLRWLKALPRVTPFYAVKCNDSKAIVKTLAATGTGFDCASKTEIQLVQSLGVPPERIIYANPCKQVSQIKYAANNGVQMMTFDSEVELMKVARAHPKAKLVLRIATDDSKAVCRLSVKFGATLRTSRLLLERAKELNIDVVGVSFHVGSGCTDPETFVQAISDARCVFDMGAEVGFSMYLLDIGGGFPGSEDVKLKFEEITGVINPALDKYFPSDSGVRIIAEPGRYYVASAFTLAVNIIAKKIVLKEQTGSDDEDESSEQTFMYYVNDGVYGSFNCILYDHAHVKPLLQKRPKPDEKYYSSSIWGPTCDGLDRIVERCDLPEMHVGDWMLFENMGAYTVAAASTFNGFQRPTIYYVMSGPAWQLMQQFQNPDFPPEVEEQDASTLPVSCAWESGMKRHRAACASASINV
Experimental: Our strategy to identify novel ODC inhibitors was to first screen new analogs for ODC inhibition at 50 μM using our in vitro enzyme activity assay and purified human ODC (Table 1). Those showing significant inhibition were then titrated to provide an ODC IC50 followed by cell-based screening against both cancer (Kelly neuroblastoma) and noncancerous (neonatal fibroblasts) cell lines. For the cancer cell line, higher cytotoxicity was desired and for the noncancerous cell line counter screen, lower cytotoxicity was desired.
In vitro ODC activity was measured using 100 ng of purified human ODC enzyme, as we previously described.[53],[99] ODC was incubated with increasing concentrations of inhibitors for 30 min at room temperature in a buffer containing 25 mM Tris and 0.1 mM EDTA. […] In the cell-based ODC activity assay, Kelly neuroblastoma cells that were treated with 500 μM inhibitors were harvested in a buffer containing 25 mM Tris HCl, 0.1 mM EDTA, and 2.5 mM DTT. […] For both the in vitro and cell-based assay, the microcentrifuge tubes were then placed into scintillation vials containing a piece of filter paper saturated with 200 μL of 0.1 M NaOH to capture the release of radiolabeled carbon dioxide. The samples were incubated in a 37 °C incubator while shaking for 30 min (in vitro) or 2 h (cell-based). The enzymatic reaction was stopped by adding 250 μL of 5 M sulfuric acid to each sample and incubating at 37 °C while shaking for 30 min. The microcentrifuge tubes were removed from the scintillation vials, and 5 mL of scintillation fluid was added. Disintegrations per minute (DPM) of each sample was measured using a TriCarb liquid scintillation counter (PerkinElmer). The specific ODC activity is expressed as nmol CO2/min/mg protein (in vitro) or pmol CO2/min/mg protein (cell-based). The individual ODC inhibitor IC50 values were determined using Graphpad Prism 8.

[6] = system: polyamine levels in Kelly neuroblastoma cells; assay: Polyamine analysis (HPLC of dansylated polyamines); assay type: cell-based; conditions: 500 μM inhibitor; for Kelly Treated Neuroblastoma Cells (Total Spm): Control = 2.57+0.47; for Kelly Treated Neuroblastoma Cells (Spd): Control = 8.52+1.63; for Kelly Treated Neuroblastoma Cells (Total Put): Control = 9.71+1.31; for Kelly Treated Neuroblastoma Cells (Total PA): Control = 20.81 +2.67; for polyamine levels relative to control (in words) / putrescine level (in words): Figure 6B
Experimental: Polyamines from Kelly neuroblastoma cells treated with 500 μM inhibitors were isolated, dansylated, and analyzed by HPLC. Briefly, polyamines were extracted and protonated in perchloric acid/sodium chloride buffer. To 100 μL of sample, 4.5 nmol of 1,7 diaminoheptane internal standard and 200 μL of 1 M sodium carbonate was added prior to dansylation with 400 μL of 5 mg/mL dansyl chloride (Sigma-Aldrich) for 60 min at 65 °C. One hundred μL of 1 M proline was then added to each reaction and incubated for 20 min at 65 °C. Polyamines were extracted from the mixture using methylene chloride. The methylene chloride was allowed to evaporate, the samples were resuspended in methanol and run through a C18 cleanup column. Samples were then analyzed using a Thermo Scientific/Dionex Ultimate 3000 HPLC, using a Syncronis C18 column (250 × 4.6 mm, […] pore size), and containing a fluorescence detector. The dansylated polyamine peaks were visualized by excitation at 340 nm and emission at 515 nm. The buffers used for elution of the polyamines were as follows: buffer A: 10 mM sodium heptanesulfonate/10% acetontrile at pH 3.4. Buffer B: 100% acetonitrile. The flow rate was 0.7 mL per minute. The column was equilibrated with 55% buffer B/45% buffer A prior to injection of the sample. Upon injection of the sample, elution of polyamines occurs in an isocratic solution of 55% buffer B/45% buffer A for 28 min. The solution was then slowly ramped to 95% buffer B/5% buffer A for 20 min. This gradient was held for 27 min to elute the spermine peak. The solution was then quickly dropped back to 55% buffer B/45% buffer A to re-equilibrate the column prior to the next sample being injected. Using the relative molar response derived from N-dansylated PA and 1,7 diaminoheptane standards, the amount of N-dansylated polyamines was calculated and normalized to total sample protein.

[7] = target: homogeneous bovine brain spermidine synthase; design: method as in PMID 3861182; conditions: competitive; read-out: Ki, competitive inhibitor of bovine brain spermidine synthase; cited from earlier work
[8] = read-out: ODC biochemical inhibition % (50 μM)

inhibition at 50 µM ([5]; 50 µM, supplement csv, read-out: ODC % inhibition (screened at 50 µM)) [%] | inhibition at 50 µM [5, 8] [%] | IC50 [5] [µM] | Structure (SMILES) | Ki [1] [µM] | Ki [2] [µM] | water solubility (in words) [3] | pKa of hydroxyl amine [4] | IC50 against human ODC (in words) (human ODC) | potency against human ODC, times higher than that of DFMO (human ODC) | Kelly Treated Neuroblastoma Cells (Total Spm) [6] | Kelly Treated Neuroblastoma Cells (Spd) [6] | Kelly Treated Neuroblastoma Cells (Total Put) [6] | Kelly Treated Neuroblastoma Cells (Total PA) [6] | polyamine levels relative to control (in words) ([6]; Kelly neuroblastoma cells) | putrescine level (in words) ([6]; Kelly neuroblastoma cells) | Ki [7] [µM] | spermidine and spermine levels (in words) ([6]; Kelly neuroblastoma cells, relative to APA)
99 | > 99 | 0.04 | NCCCON [APA, 3-(Aminooxy)propan-1-Amine Dihydrochloride] | 50 | 0.0032 | highly water-soluble | ~5.9 | low nM range | 10,000 times | 5.09+1.39 | 7.14+6.27 | 0 | 12.2+7.59 | reduced polyamine levels | undetected | 2.3 | 
 | > 99 | 0.05 | Cl.Cl.NOCC1(F)CCNC1 (stereo not shown) [Compound 11, 3-[(aminooxy)methyl]-3-fluoropyrrolidine di-formic acid] |  |  |  |  |  |  | 2.74+0.46 | 1.81+0.73 | 0 | 4.55+1.14 | reduced polyamine levels | undetected |  | greatest reductions
